Measured values: patent publication US8252822B2, “Heterocyclic compounds and uses as anticancer agents” (Acea Biosciences, Inc., priority 2007, dated 2012)

What was measured:
A549 cells = experiment: RT-CES cell proliferation inhibition, A549; assay type: cell-based, Human
Description: The biological activity of compounds disclosed herein was monitored and profiled using the Real-Time Cell Electronic Sensing (RT-CES®) system from ACEA Biosciences, Inc. The RT-CES system utilizes cell-substrate impedance technology to monitor cellular behavior inside tissue culture wells in a microtiter plate format. The technology features in the integration of molecular and cell biology with microelectronics and is based on the electronic detection of biological assay process. The details of this cell electronic sensing technology and associated devices, systems and methods of use as described in U.S. provisional application No. 60/379,749, filed on Jul. 20, 2002; U.S. provisional application No. 60/435,400, filed on Dec. 20, 2002; U.S. Provisional application 60/469,572, filed on May 9, 2003, PCT application number PCT/US03/22557, filed on Jul. 18, 2003; PCT application number PCT/US03/22537, filed on Jul. 18, 2003; U.S. patent application Ser. No. 10/705,447, filed on Nov. 10, 2003; U.S. patent application Ser. No. 10/705,615, filed on Nov. 10, 2003, each of which is incorporated by reference. Additional details of RT-CES technology is further disclosed in U.S. provisional application No. 60/519,567, filed on Nov. 12, 2003, and U.S. provisional application No. 60/542,927, filed on Feb. 9, 2004.
For measurement of cell-substrate or cell-electrode impedance using RT-CES technology, microelectrodes having appropriate geometries are fabricated onto the bottom surfaces of microtiter plate or similar device, facing into the wells. Cells are introduced into the wells of the devices, and make contact to and attach to the electrode surfaces. The presence, absence or change of properties of cells affects the electronic and ionic passage on the electrode sensor surfaces. Measuring the impedance between or among electrodes provides important information about biological status of cells present on the sensors. When there are changes to the biological status of the cells analogue electronic readout signals are measured automatically and in real time, and are converted to digital signals for processing and for analysis. In a RT-CES system, a cell index (arbitrary representation of change in impedance) is automatically derived and provided based on measured electrode impedance values. The cell index obtained for a given well reflects: 1) how many cells are attached to the electrode surfaces in this well; 2) how well cells are attached to the electrode surfaces in this well. Thus, the more the cells of same type in similar physiological conditions attach the electrode surfaces, the larger the cell index. And, the better the cells attach to the electrode surfaces (e.g., the cells spread-out more to have larger contact areas, or the cells attach tighter to electrode surfaces), the larger the cell index.
The RT-CES system comprises three components, an electronic sensor analyzer, a device station and 16× or 96× microtiter devices. Microelectrode sensor array was fabricated on glass slides with lithographical microfabrication methods and the electrode-containing slides are assembled to plastic trays to form electrode-containing wells. The device station receives the 16× or 96× microtiter plate devices and is capable of electronically switching any one of the wells to the sensor analyzer for impedance measurement. In operation, the devices with cells cultured in the wells are placed into a device station that is located inside an incubator. Electrical cables connect the device station to the sensor analyzer. Under the RT-CES software control, the sensor analyzer can automatically select wells to be measured and continuously conduct impedance measurements. The impedance data from the analyzer is transferred to a computer, analyzed and processed by the integrated software.
To quantify cell status based on the measured cell-electrode impedance, a parameter termed Cell Index is derived. […]

Row | SMILES | response pattern of A549 cells compared with paclitaxel (A549 cells; 140 nM of compound vs 12.5 nM of paclitaxel) | response pattern of A549 cells compared with paclitaxel (A549 cells; 560 nM of compound vs 25 nM of paclitaxel) | concentration at or above which cell indices first decreased with time and then increased (A549 cells; A549, complex kinetic responses) | IC50 (A549 cells; Homo sapiens, A549, 24 hours after compound treatment, normalized Cell Index, read-out: IC50 (24 hr)) | inhibitory ability against the proliferation of A549 cells (A549 cells; various concentrations studied, time-dependent cell index) | melting point
1 | Br.Cc1nc2sccn2c1-c1csc(Nc2ccc(Br)cc2)n1 [Compound 28, 2-(4-bromophenyl)amino-4-(6-methylimidazo[2,1-b]thiazol-5-yl)thiazole] | somewhat similar | somewhat similar | ≥ 0.14 µM | 86.4 nM | exhibited inhibitory ability against the proliferation of A549 cells | –
2 | Br.Cc1nc2sccn2c1-c1csc(Nc2ccc(Br)cc2)n1 | – | – | – | – | – | > 250 °C
